Experimental data as given in PMC5587682 (Scientific Reports, 2017).
Read-outs that look alike come from different tables or passages of the source. Positions of bridges follow the written chain, without caps; N, C: chain ends. Residues, ends and D or L forms follow the SMILES beside them.

Columns and labels:
A/Parma/05/06 H3N2 [1] = tested on: A/Parma/05/06 H3N2
A/Parma/05/06 H3N2 [2] = assay type: cell-based, Influenza A virus; settings: turkey erythrocytes
[3] = tested on: A/Roma-ISS/02/08 H1N1 oseltamivir-sensitive virus; assay type: cell-based, Influenza A virus; settings: turkey erythrocytes
[4] = tested on: Influenza A virus strains (all tested viruses); settings: earlier work; ref [23]; cited from earlier work
[5] = tested on: Influenza A virus strains (all tested viruses); settings: earlier work; ref [23]; cited from earlier work; remark: listed apart in the source
[6] = A/Parma/05/06 H3N2, MDCK cells, CC50 >25 μM
[7] = A/Roma-ISS/02/08 H1N1, MDCK cells, CC50 >25 μM
[8] = A/Parma/24/09 H1N1, MDCK cells, CC50 >25 μM
[9] = A/Roma-ISS/02/08 H1N1, MDCK cells, mean of 3 experiments with standard errors
[10] = A/Parma/24/09 H1N1, MDCK cells, mean of 3 experiments with standard errors
[11] = A/Parma/05/06 H3N2, MDCK cells, mean of 3 experiments with standard errors
[12] = A/Roma-ISS/2/08 H1N1, neutralization

CC(C)C[C@H](NC(=O)[C@H](CO)NC(=O)[C@H](CO)NC(=O)[C@H](Cc1c[nH]cn1)NC(=O)[C@H](CCCCN)NC(=O)[C@@H](N)CO)C(=O)N[C@@H](CC(=O)O)C(=O)N[C@@H](CS)C(=O)N[C@H](C(=O)N[C@@H](CC(C)C)C(=O)N[C@@H](CCCNC(=N)N)C(=O)N1CCC[C@H]1C(=O)O)C(C)C [Peptide 1, SKHSSLDCVLRP] (H-SKHSSLDCVLRP-OH)
SI (CC50/EC50) (A/Parma/05/06 H3N2 [1]; [6]): >4.4.10^6 | SI (CC50/EC50) (A/Roma-ISS/02/08 H1N1; [7]): >6.25.10^6 | SI (CC50/EC50) (A/Parma/24/09 H1N1; [8]): >8.10^6

CC(C)C[C@H](NC(=O)CNC(=O)[C@H](CCC(=O)O)NC(=O)[C@H](CC(N)=O)NC(=O)[C@H](C)NC(=O)[C@@H](N)CCCCN)C(=O)N[C@H](C(=O)N[C@@H](Cc1c[nH]c2ccccc12)C(=O)N[C@@H](CC(N)=O)C(=O)N[C@@H](CO)C(=O)N[C@@H](CC(C)C)C(=O)N[C@@H](CCCCN)C(=O)N[C@@H](CC(=O)O)C(=O)N[C@@H](CCCCN)C(=O)O)[C@@H](C)O [Peptide 4, KANEGLTWNSLKDK] (H-KANEGLTWNSLKDK-OH)
SI (CC50/EC50) (A/Parma/05/06 H3N2 [1]; [6]): >2.5.10^4 | SI (CC50/EC50) (A/Roma-ISS/02/08 H1N1; [7]): >2.5.10^7 | EC50 (A/Roma-ISS/02/08 H1N1; [9]): 0.001 ± 0.00015 nM | SI (CC50/EC50) (A/Parma/24/09 H1N1; [8]): >5.10^2

C[C@H](NC(=O)CNC(=O)[C@@H]1CCCN1C(=O)[C@H](C)NC(=O)[C@@H]1CSSC[C@H](NC(=O)[C@H](CO)NC(=O)CNC(=O)[C@@H](N)[C@@H](C)O)C(=O)N[C@@H](C)C(=O)N[C@@H](Cc2ccccc2)C(=O)N[C@@H](CC(=O)O)C(=O)N[C@@H](CCC(=O)O)C(=O)N[C@@H](Cc2ccccc2)C(=O)N[C@@H](Cc2ccccc2)C(=O)N[C@@H](CO)C(=O)N[C@@H](CCC(N)=O)C(=O)N[C@@H](CO)C(=O)N1)C(=O)N[C@@H](CC(=O)O)C(=O)N1CCC[C@H]1C(=O)N[C@@H](CCCCN)C(=O)N[C@@H](CO)C(=O)N[C@@H](CCCNC(=N)N)C(=O)O [Peptide 5] (H-TGSCAFDEFFSQSCAPGADPKSR-OH; disulfide 4-14; N-terminus assumed)
HI titer (A/Parma/05/06 H3N2 [2]): 97 nM

C[C@H](NC(=O)[C@H](Cc1c[nH]c2ccccc12)NC(=O)[C@H](CC(=O)O)NC(=O)[C@H](C)NC(=O)[C@@H](NC(=O)[C@H](CO)NC(=O)[C@H](CCC(=O)O)NC(=O)CNC(=O)[C@H](CC(N)=O)NC(=O)[C@@H](N)[C@@H](C)O)[C@@H](C)O)C(=O)N[C@@H](CCCCN)C(=O)N[C@@H](CC(N)=O)C(N)=O [Peptide 6, TNGESTADWAKN] (H-TNGESTADWAKN-NH2; N-terminus and C-terminus assumed)
HI titer (A/Parma/05/06 H3N2 [2]): 0.3 nM | HI titer [3]: 0.7 nM | SI (CC50/EC50) (A/Parma/05/06 H3N2 [1]; [6]): >2.5.10^3 | SI (CC50/EC50) (A/Roma-ISS/02/08 H1N1; [7]): >6.25.10^4 | EC50 (A/Roma-ISS/02/08 H1N1; [9]): 0.4 ± 2e-05 nM | SI (CC50/EC50) (A/Parma/24/09 H1N1; [8]): >5.10^2

C[C@@H](O)[C@H](NC(=O)[C@H](CCC(=O)O)NC(=O)[C@H](CO)NC(=O)[C@@H](N)CCCCN)C(=O)N[C@@H](CCCCN)C(=O)N[C@@H](CC(N)=O)C(=O)O [Peptide 8, KSETKN] (H-KSETKN-OH; N-terminus and C-terminus assumed)
HI titer (A/Parma/05/06 H3N2 [2]): 3 nM | HI titer [3]: 1.5 nM | SI (CC50/EC50) (A/Parma/05/06 H3N2 [1]; [6]): >0.65.10^2 | SI (CC50/EC50) (A/Roma-ISS/02/08 H1N1; [7]): >5.10^7 | SI (CC50/EC50) (A/Parma/24/09 H1N1; [8]): >5.10^4 | EC50 (A/Parma/24/09 H1N1; [10]): 500 ± 0.46 pM

CC(C)C[C@H](NC(=O)[C@@H](NC(=O)[C@H](CS)NC(=O)[C@H](CC(=O)O)NC(=O)[C@H](CC(C)C)NC(=O)[C@@H](N)CO)C(C)C)C(=O)N[C@@H](CCCNC(=N)N)C(=O)N1CCC[C@H]1C(N)=O [Peptide 13, SLDCVLRP] (H-SLDCVLRP-NH2)
HI titer (A/Parma/05/06 H3N2 [2]): 0.0004 nM | HI titer [3]: 0.0007 nM | SI (CC50/EC50) (A/Parma/05/06 H3N2 [1]; [6]): >8.33.10^4 | EC50 (A/Parma/05/06 H3N2 [1]; [11]): 0.3 ± 0.0002 nM | loss of activity with respect to 1 (A/Parma/05/06 H3N2 [1]; H3N2 strain, neutralization): ≈ 50 fold | SI (CC50/EC50) (A/Roma-ISS/02/08 H1N1; [7]): >8.33.10^7 | SI (CC50/EC50) (A/Parma/24/09 H1N1; [8]): >1.10^7 | EC50 (A/Parma/24/09 H1N1; [10]): 2.5 ± 0.37 pM

CC(=O)N[C@H](C(=O)N[C@@H](CC(C)C)C(=O)N[C@@H](CCCNC(=N)N)C(=O)N1CCC[C@H]1C(N)=O)C(C)C [Peptide 14, VLRP] (Ac-VLRP-NH2)
SI (CC50/EC50) (A/Parma/05/06 H3N2 [1]): >1.10^5 | EC50 (A/Parma/05/06 H3N2 [1]; A/Parma/05/06, 1 h): 0.25 ± 0.00042 nM | SI (CC50/EC50) (A/Roma-ISS/02/08 H1N1): >5.55.10^7 | SI (CC50/EC50) (A/Parma/24/09 H1N1): >2.5.10^7 | EC50 (A/Parma/24/09 H1N1; A/Parma/24/09, 1 h): 1 ± 0.05 pM

CC(=O)N[C@@H](CO)C(=O)N[C@@H](CC(C)C)C(=O)N[C@@H](CC(=O)O)C(=O)N[C@@H](CS)C(N)=O [Peptide 15, SLDC] (Ac-SLDC-NH2)
SI (CC50/EC50) (A/Roma-ISS/02/08 H1N1; [7]): >5.10^7 | SI (CC50/EC50) (A/Parma/24/09 H1N1; [8]): >5.4.10^6 | EC50 (A/Parma/24/09 H1N1; [10]): 4.6 ± 0.05 pM

CC(C)C[C@H](NC(=O)[C@H](CO)NC(=O)[C@H](CO)NC(=O)[C@H](Cc1c[nH]cn1)NC(=O)[C@H](CCCCN)NC(=O)[C@@H](N)CO)C(=O)N[C@@H](CC(=O)O)C(=O)N[C@@H](CS)C(=O)O [Peptide 16, SKHSSLDC] (H-SKHSSLDC-OH; N-terminus and C-terminus assumed)
HI titer (A/Parma/05/06 H3N2 [2]): 12 nM | HI titer [3]: 0.3 nM | SI (CC50/EC50) (A/Parma/05/06 H3N2 [1]; [6]): >5.10^6 | EC50 (A/Parma/05/06 H3N2 [1]; [11]): 0.005 ± 0.00045 nM | fold less active than 1 (A/Roma-ISS/02/08 H1N1; [12]): 20 fold | fold less active than 13 (A/Roma-ISS/02/08 H1N1; [12]): 270 fold | SI (CC50/EC50) (A/Roma-ISS/02/08 H1N1; [7]): >3.125.10^5 | EC50 (A/Roma-ISS/02/08 H1N1; [9]): 0.08 ± 0.00019 nM | fold more potent than 1 (A/Parma/24/09 H1N1; A/Parma/24/09 H1N1, neutralization): 30 fold | SI (CC50/EC50) (A/Parma/24/09 H1N1; [8]): >2.5.10^8

CC(=O)N[C@@H](CO)C(=O)N[C@@H](CCCCN)C(=O)N[C@@H](Cc1c[nH]cn1)C(=O)N[C@@H](CO)C(N)=O [Peptide 17, SKHS] (Ac-SKHS-NH2)
SI (CC50/EC50) (A/Parma/05/06 H3N2 [1]): >5.10^6 | EC50 (A/Parma/05/06 H3N2 [1]; A/Parma/05/06, 1 h): 0.005 ± 2e-05 nM | SI (CC50/EC50) (A/Roma-ISS/02/08 H1N1): >8.33.10^6 | EC50 (A/Roma-ISS/02/08 H1N1; A/Roma-ISS/02/08, 1 h): 0.003 ± 0.00061 nM | SI (CC50/EC50) (A/Parma/24/09 H1N1): >5.2.10^8

AGDDQGLDKCVPNSKEK [Peptide 2, bLf C-lobe fragment 506–522]
concentration inhibiting viral hemagglutination [4]: low picomolar | concentration inhibiting viral infection [5]: low picomolar

NGESSADWAKN [Peptide 3]
concentration inhibiting viral hemagglutination [4]: low picomolar | concentration inhibiting viral infection [5]: low picomolar

NRKSSKHSSLDCVLRP [Peptide 11, bLf C-lobe fragment 414–429]
HI titer (A/Parma/05/06 H3N2 [2]): 0.4 nM

NRKSSKHSSLDCVLRPTEGY [Peptide 10, bLf C-lobe fragment 414–433]
HI titer (A/Parma/05/06 H3N2 [2]): 0.0014 nM | HI titer [3]: 0.3 nM

SKHSSLDCVLRPTEGY [Peptide 12, bLf C-lobe fragment 418–433]
HI titer (A/Parma/05/06 H3N2 [2]): 0.03 nM | HI titer [3]: 0.7 nM
